Converted amounts (≈) assume the structure as drawn. The source made the active and inactive calls. The rule behind the calls is not given here.
Legend:
Shigella dysenteriae = experiment: Antibacterial activity against Shigella dysenteriae by micro broth dilution method; type: functional
Staphylococcus aureus [1] = experiment: Antibacterial activity against methicillin-resistant Staphylococcus aureus N315 by micro broth dilution method; type: functional
Staphylococcus aureus [2] = experiment: Antibacterial activity against Staphylococcus aureus ATCC 25923 by micro broth dilution method; type: functional
Micrococcus luteus [3] = experiment: Antibacterial activity against Micrococcus luteus ATCC 4698 by micro broth dilution method; type: functional; conditions: NCTC 2665
Bacillus spizizenii = experiment: Antibacterial activity against Bacillus subtilis ATCC 6633 by micro broth dilution method; type: functional
Escherichia coli [4] = experiment: Antibacterial activity against Escherichia coli DH52 by micro broth dilution method; type: functional
Escherichia coli [5] = experiment: Antibacterial activity against Escherichia coli JM109 by micro broth dilution method; type: functional
Pseudomonas aeruginosa = experiment: Antibacterial activity against Pseudomonas aeruginosa ATCC 27853 by micro broth dilution method; type: functional
[6] = Antibacterial activity against Bacillus proteus ATCC 13315 by micro broth dilution method; type: functional
Salmonella enterica [7] = experiment: Antibacterial activity against Salmonella enterica ATCC 14028 by micro broth dilution method; type: functional
Micrococcus luteus [8] = experiment: Potency index, ratio of chloromycin MIC to compound MIC for Micrococcus luteus ATCC 4698; type: functional, NCTC 2665
Bacillus [9] = experiment: Potency index, ratio of chloromycin MIC to compound MIC for Bacillus proteus ATCC 13315; type: functional
Salmonella enterica [10] = experiment: Potency index, ratio of chloromycin MIC to compound MIC for Salmonella enterica ATCC 14028; type: functional
Micrococcus luteus [11] = experiment: Potency index, ratio of ciprofloxacin MIC to compound MIC for Micrococcus luteus ATCC 4698; type: functional, NCTC 2665
Micrococcus luteus [12] = experiment: Potency index, ratio of clinafloxacin MIC to compound MIC for Micrococcus luteus ATCC 4698; type: functional, NCTC 2665
Bacillus [13] = experiment: Potency index, ratio of clinafloxacin MIC to compound MIC for Bacillus proteus ATCC 13315; type: functional
Salmonella enterica [14] = experiment: Potency index, ratio of clinafloxacin MIC to compound MIC for Salmonella enterica ATCC 14028; type: functional
[15] = Antifungal activity against Candida mycoderma ATCC 9888 after 24 hrs by micro broth dilution method; type: functional; conditions: Candida vini
Staphylococcus aureus [16] = experiment: Bactericidal activity against methicillin-resistant Staphylococcus aureus N315 assessed as reduction in log10 CFU count at 6 times MIC after 24 hrs by time kill assay; type: functional
Staphylococcus aureus [17] = experiment: Antibiofilm activity against methicillin-resistant Staphylococcus aureus N315 after 24 hrs by crystal violet staining-based plate reader assay; type: functional, organism-based; conditions: N315, 24 h
Escherichia coli [18] = experiment: Antibiofilm activity against Escherichia coli DH52 after 24 hrs by crystal violet staining-based plate reader assay; type: functional, organism-based; conditions: DH52, 24 h
Staphylococcus aureus [19] = experiment: Antibiofilm activity against methicillin-resistant Staphylococcus aureus N315 assessed as log10 CFU count at 0.125 ug/ml after 24 hrs (reference value: 13.6 log10 CFU/ml); type: functional
Staphylococcus aureus [20] = experiment: Antibiofilm activity against methicillin-resistant Staphylococcus aureus N315 assessed as log10 CFU count at 0.25 ug/ml after 24 hrs (reference value: 13.6 log10 CFU/ml); type: functional
Staphylococcus aureus [21] = experiment: Antibiofilm activity against methicillin-resistant Staphylococcus aureus N315 assessed as log10 CFU count at 1 ug/ml after 24 hrs (reference value: 13.6 log10 CFU/ml); type: functional
Staphylococcus aureus [22] = experiment: Antibiofilm activity against methicillin-resistant Staphylococcus aureus N315 assessed as log10 CFU count at 2 ug/ml after 24 hrs (reference value: 13.6 log10 CFU/ml); type: functional
Staphylococcus aureus [23] = experiment: Antibiofilm activity against methicillin-resistant Staphylococcus aureus N315 assessed as reduction in log10 CFU count after 24 hrs; type: functional, organism-based; conditions: N315, 24 h
Escherichia coli [24] = experiment: Antibiofilm activity against Escherichia coli DH52 assessed as log10 CFU count at 0.5 ug/ml after 24 hrs (reference value: 16.2 log10CFU/ml); type: functional
Escherichia coli [25] = experiment: Antibiofilm activity against Escherichia coli DH52 assessed as log10 CFU count at 0.25 ug/ml after 24 hrs (reference value: 16.2 log10CFU/ml); type: functional
Escherichia coli [26] = experiment: Antibiofilm activity against Escherichia coli DH52 assessed as log10 CFU count at 2 ug/ml after 24 hrs (reference value: 16.2 log10CFU/ml); type: functional
Escherichia coli [27] = experiment: Antibiofilm activity against Escherichia coli DH52 assessed as log10 CFU count at 4 ug/ml after 24 hrs (reference value: 16.2 log10CFU/ml); type: functional
Escherichia coli [28] = experiment: Antibiofilm activity against Escherichia coli DH52 assessed as reduction in log10 CFU count after 48 hrs; type: functional, organism-based; conditions: DH52, 48 h
Staphylococcus aureus [29] = experiment: Antibacterial activity against methicillin-resistant Staphylococcus aureus N315 assessed as membrane permeabilization at 12 times MIC measured for 15 mins by propidium iodide staining-based method; type: functional, organism-based
Escherichia coli [30] = experiment: Antibacterial activity against Escherichia coli DH52 assessed as membrane permeabilization at 12 times MIC measured for 15 mins by propidium iodide staining-based method; type: functional, organism-based
Staphylococcus aureus [31] = experiment: Antibacterial activity against methicillin-resistant Staphylococcus aureus N315 measured after 12 passages; type: functional
Escherichia coli [32] = experiment: Inhibition of Escherichia coli topoisomerase 4 assessed as DNA relaxation using PUC19T-DNA at 10 uM after 2 hrs by ehtidium bromide staining-based agarose gel electrophoresis
HEK293 = experiment: Cytotoxicity against HEK293 cells after 24 hrs by CCK8 assay; type: cell-based; conditions: Homo sapiens, HEK293, 24 h
Calf thymus DNA = experiment: Binding affinity to calf thymus DNA by UV-visible spectroscopy; type: nucleic-acid assay; conditions: Bos taurus
Cyberlindnera jadinii = experiment: Antifungal activity against Candida utilis ATCC 9950 after 24 hrs by micro broth dilution method; type: functional; conditions: Williopsis jadinii, ATCC 9950, 24 h
Aspergillus flavus = experiment: Antifungal activity against Aspergillus flavus ATCC 204304 after 24 hrs by micro broth dilution method; type: functional; conditions: ATCC 204304, 24 h
Saccharomyces cerevisiae = experiment: Antifungal activity against Saccharomyces cerevisiae ATCC 9763 after 24 hrs by micro broth dilution method; type: functional; conditions: ATCC 9763, 24 h
Candida albicans = experiment: Antifungal activity against Candida albicans ATCC 10231 after 24 hrs by micro broth dilution method; type: functional; conditions: ATCC 10231, 24 h
Micrococcus luteus [33] = experiment: Potency index, ratio of norfloxacin MIC to compound MIC for Micrococcus luteus ATCC 4698; type: functional, NCTC 2665
Salmonella enterica [34] = experiment: Potency index, ratio of norfloxacin MIC to compound MIC for Salmonella enterica ATCC 14028; type: functional

Work on `O=C(O)c1cn(C2CC2)c2cc(N3CCN(Cc4nc5ccccc5n4Cc4ccc(Cl)cc4Cl)CC3)c(F)cc2c1=O` yielded an MIC (Shigella dysenteriae) of 1 µg/mL (≈ 1.61 µM), an MIC (Staphylococcus aureus [1]) of 0.125 µg/mL (≈ 0.201 µM) and an MIC (Staphylococcus aureus [2]) of 8 µg/mL (≈ 12.9 µM). For the same molecule, the MIC (Micrococcus luteus [3]) was 0.0625 µg/mL (≈ 0.101 µM), the MIC (Bacillus spizizenii) was 4 µg/mL (≈ 6.45 µM) and the MIC (Escherichia coli [4]) was 0.125 µg/mL (≈ 0.201 µM). The MIC (Escherichia coli [5]) was 1 µg/mL (≈ 1.61 µM), the MIC (Pseudomonas aeruginosa) was 0.5 µg/mL (≈ 0.806 µM) and the MIC [6] was 0.0312 µg/mL (≈ 0.0503 µM). The MIC (Salmonella enterica [7]) was 0.0312 µg/mL (≈ 0.0503 µM), the Ratio (Micrococcus luteus [8]) was 128 and the Ratio (Bacillus [9]) was 1025. The Ratio (Salmonella enterica [10]) was 1025, the Ratio (Micrococcus luteus [11]) was 32 and the Ratio (Micrococcus luteus [12]) was 8. It also gave a Ratio (Bacillus [13]) of 16, a Ratio (Salmonella enterica [14]) of 8 and an MIC80 [15] of 0.25 µg/mL (≈ 0.403 µM). The Activity (Staphylococcus aureus [16]) was 3 log10CFU/ml, the IC50 (Staphylococcus aureus [17]) was 0.125 µg/mL (≈ 0.201 µM) and the IC50 (Escherichia coli [18]) was 0.25 µg/mL (≈ 0.403 µM). It also gave an Activity (Staphylococcus aureus [19]) of 10.5 log10CFU/ml, an Activity (Staphylococcus aureus [20]) of 9.6 log10CFU/ml and an Activity (Staphylococcus aureus [21]) of 5 log10CFU/ml. The Activity (Staphylococcus aureus [22]) was 0.1 log10CFU/ml, the EC50 (Staphylococcus aureus [23]) was 0.76 µg/mL (≈ 1.22 µM) and the Activity (Escherichia coli [24]) was 10.1 log10CFU/ml. It also gave an Activity (Escherichia coli [25]) of 12.2 log10CFU/ml, an Activity (Escherichia coli [26]) of 7.2 log10CFU/ml and an Activity (Escherichia coli [27]) of 3.6 log10CFU/ml. For the same molecule, the EC50 (Escherichia coli [28]) was 1.5 µg/mL (≈ 2.42 µM), the Activity (Staphylococcus aureus [29]) was “Active” and the Activity (Escherichia coli [30]) was “Active”. The MIC (Staphylococcus aureus [31]) was 0.125 µg/mL (≈ 0.201 µM), the inhibition (Escherichia coli [32]) was “Active” and the IC50 (HEK293) was 106 µg/mL (≈ 171 µM). It also gave a K (Calf thymus DNA) of 4.3 ×10⁴ L/mol, an MIC80 (Cyberlindnera jadinii) of 0.125 µg/mL (≈ 0.201 µM) and an MIC80 (Aspergillus flavus) of 0.5 µg/mL (≈ 0.806 µM). It also gave an MIC80 (Saccharomyces cerevisiae) of 1 µg/mL (≈ 1.61 µM), an MIC80 (Candida albicans) of 0.5 µg/mL (≈ 0.806 µM) and a Ratio (Micrococcus luteus [33]) of 32. For the same molecule, the Ratio (Salmonella enterica [34]) was 32.
